System: HT-1080 cells
Assay: HT-1080 cell viability assay (ferroptosis induced by RSL3, Cell Titer-Glo)
Type: cell-based
Conditions: Homo sapiens, ferroptosis inducer RSL3, 20 hours, ferroptosis inhibitory activity, Table 2
Method in brief: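 EC50 fitted by sigmoidal dose-response regression on luminescent viability data normalized to untreated cells. Compounds ran as a 10-point, 3-fold series from 1.1 μM alongside RSL3 for 20 hours, after overnight seeding.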

For `CC1(C)CCC(c2ccc(NCCCCN)cc2)CC1` [Compound 225, N1-(4-(4,4-dimethylcyclohexyl)phenyl) butane-1,4-diamine], the EC50 (HT-1080, 20 h) was 0.1 to 100 nM.

`CC1(C)CCC(c2ccc(NC3CCC(C(C)(C)N)CC3)cc2)CC1` (centres unmarked) [Compound 226, N-(4-(2-aminopropan-2-yl)cyclohexyl)-4-(4,4-dimethylcyclohexyl)aniline] was tested, and the EC50 was 0.1 to 100 nM.

Molecule `CC(C)(CN1CCCC1)Nc1ccc(C(C)(C)C)cc1` [Compound 227, 4-(tert-butyl)-N-(2-methyl-1-(pyrrolidin-1-yl)propan-2-yl)aniline] has an EC50 (HT-1080, 20 h) of 1000 to 10000 nM.

`CC(C)(CN)Nc1ccc(C(C)(C)C)cc1` [Compound 229] was tested, and the EC50 (HT-1080, 20 h) was 1000 to 10000 nM.

`CC(C)(C)c1ccc(NC2CCC(NCCO)CC2)cc1` (centres unmarked) [Compound 230, 2-((4-((4-(tert-butyl)phenyl)amino)cyclohexyl)amino)ethan-1-ol] showed an EC50 (HT-1080, 20 h) of 0.1 to 100 nM.

Molecule `CC1CC(Nc2ccc(C(C)(C)C)cc2)CCC1O` (centres unmarked) [Compound 233A] has an EC50 (HT-1080, 20 h) of 100 to 1000 nM.

`CC(C)(C)c1ccc(NC(CCO)CCO)cc1` [Compound 234, 3-((4-(tert-butyl)phenyl)amino) pentane-1,5-diol] gave an EC50 (HT-1080, 20 h) of 1000 to 10000 nM.

`NCC1CCC(Nc2ccc3c(c2)CCC3)CC1` (centres unmarked) [Compound 235, N-(4-(aminomethyl)cyclohexyl)-2,3-dihydro-1H-inden-5-amine] was tested, and the EC50 (HT-1080, 20 h) was 0.1 to 100 nM.

Molecule `NC1CCC(Nc2ccc3c(c2)CCCC3)CC1` (centres unmarked) [Compound 236, N1-(5,6,7,8-tetrahydronaphthalen-2-yl)cyclohexane-1,4-diamine] has an EC50 (HT-1080, 20 h) of 0.1 to 100 nM.

Work on `CNCC1CC(Nc2ccc(C(C)(C)C)cc2)C1` (centres unmarked) [Compound 237, 4-(tert-butyl)-N-(3-((methylamino)methyl)cyclobutyl)aniline] yielded an EC50 (HT-1080, 20 h) of 1000 to 10000 nM.

`NC1CCC(Nc2cccc3ccccc23)CC1` (centres unmarked) [Compound 238, N1-(naphthalen-1-yl)cyclohexane-1,4-diamine] gave an EC50 (HT-1080, 20 h) of 0.1 to 100 nM.

In the case of `NC1CCC(Nc2ccc(Oc3ccccc3)cc2)CC1` (centres unmarked) [Compound 239, N1-(4-phenoxyphenyl)cyclohexane-1,4-diamine], the EC50 (HT-1080, 20 h) is reported as 0.1 to 100 nM.

`Cc1ccc(NC2CCC(N)CC2)cc1C` (centres unmarked) [Compound 240, N1-(3,4-dimethylphenyl)cyclohexane-1,4-diamine] was tested, and the EC50 (HT-1080, 20 h) was 100 to 1000 nM.

Work on `CC(C)(C)c1ccc(NC2CCC(CN)C2)cc1` (centres unmarked) [Compound 241, N-(3-(aminomethyl)cyclopentyl)-4-(tert-butyl)aniline] yielded an EC50 (HT-1080, 20 h) of 0.1 to 100 nM.

Molecule `CC(C)(C)c1ccc(NC2CCC(N)CC2)cc1F` (centres unmarked) [Compound 242A, N1-(4-(tert-butyl)-3-fluorophenyl)cyclohexane-1,4-diamine 2,2,2-trifluoroacetate] has an EC50 (HT-1080, 20 h) of 0.1 to 100 nM.

Work on `CC1(C)CCC(c2ccc(NC3CCC(CCNC(N)=O)CC3)cc2)CC1` (centres unmarked) [Compound 243] yielded an EC50 (HT-1080, 20 h) of 0.1 to 100 nM.

`CC1(C)CCC(c2ccc(NC3CCC(CCNC(=O)[C@H]4CC(=O)NC(=O)N4)CC3)cc2)CC1` (stereo partly drawn) [Compound 244A, (R)—N-(2-(4-((4-(4,4-dimethylcyclohexyl)phenyl)amino)cyclohexyl)ethyl)-2,6-dioxohexahydro pyrimidine-4-carboxamide] was tested, and the EC50 (HT-1080, 20 h) was 0.1 to 100 nM.

Molecule `CN1CCN(CC(=O)N2CCC(Nc3ccc(C(C)(C)C)cc3)CC2)C(=O)C1` [Compound 245, 1-(2-(4-((4-(tert-butyl)phenyl)amino)piperidin-1-yl)-2-oxoethyl)-4-methylpiperazin-2-one] has an EC50 (HT-1080, 20 h) of 1000 to 10000 nM.

With `CC1(C)CCN(CCNc2ccc(C(C)(C)C)cc2)CC1` [Compound 246, 4-(tert-butyl)-N-(2-(4,4-dimethylpiperidin-1-yl)ethyl)aniline] the EC50 (HT-1080, 20 h) was 100 to 1000 nM.

`CN(C)CCCN1CCC(Nc2ccc(C3CCC(C)(C)CC3)cc2)CC1=O` (centres unmarked) [Compound 247, 1-(3-(dimethylamino)propyl)-4-((4-(4,4-dimethylcyclohexyl)phenyl)amino)piperidin-2-one] was tested, and the EC50 (HT-1080, 20 h) was 0.1 to 100 nM.

Work on `CC1(C)CCC(c2ccc(NC3CCC(NC(N)=O)CC3)cc2)CC1` (centres unmarked) [Compound 248, 1-(4-((4-(4,4-dimethylcyclohexyl)phenyl)amino)cyclohexyl)urea] yielded an EC50 (HT-1080, 20 h) of 100 to 1000 nM.

Molecule `CC1(C)CCC(c2ccc(NC3CCC(NS(N)(=O)=O)CC3)cc2)CC1` (centres unmarked) [Compound 249, N-(4-{[4-(4,4-dimethylcyclohexyl)phenyl]amino}cyclohexyl)aminosulfonamide] has an EC50 (HT-1080, 20 h) of 0.1 to 100 nM.

`CC1CC(Nc2ccc(C(C)(C)C)cc2)CCC1N` (centres unmarked) [Compound 250A, N1-(4-(tert-butyl)phenyl)-3-methylcyclohexane-1,4-diamine] was tested, and the EC50 (HT-1080, 20 h) was 0.1 to 100 nM.

In the case of `NC1CCC(Nc2ccc(C3CCC(F)(F)CC3)cc2)CC1` (centres unmarked) [Compound 251A, N1-(4-(4.4-difluorocyclohexyl)phenyl)cyclohexane-1,4-diamine], the EC50 (HT-1080, 20 h) is reported as 0.1 to 100 nM.

For `CCCCCCc1cc(NC2CCC(N)CC2)ccc1C(C)(C)C` (centres unmarked) [Compound 253A, N1-(4-(tert-butyl)-3-hexylphenyl)cyclohexane-1,4-diamine], the EC50 (HT-1080, 20 h) was 0.1 to 100 nM.

With `COCCCCOc1cc(NC2CCC(N)CC2)ccc1C(C)(C)C` (centres unmarked) [Compound 254, N1-(4-(tert-butyl)-3-(4-methoxybutoxy)phenyl)cyclohexane-1,4-diamine] the EC50 (HT-1080, 20 h) was 0.1 to 100 nM.

In the case of `CC(C)(C)c1ccc(NC2CCC(O)C(O)C2)cc1` (centres unmarked) [Compound 255, 4-((4-(tert-butyl)phenyl)amino)cyclohexane-1,2-diol], the EC50 (HT-1080, 20 h) is reported as 1000 to 10000 nM.

In the case of `CCOCCN(CCCCOC)CCNc1ccc(C(C)(C)C)cc1` [Compound 256, N1-(4-(tert-butyl)phenyl)-N2-(2-ethoxyethyl)-N2-(4-methoxybutyl) ethane-1,2-diamine], the EC50 (HT-1080, 20 h) is reported as 1000 to 10000 nM.

With `CN(C)CCNC1CCC(Nc2ccc(C(C)(C)C)cc2)CC1` (centres unmarked) [Compound 257] the EC50 (HT-1080, 20 h) was 0.1 to 100 nM.

`CC(C)(C)c1ccc(NC2CCC(C[N+](C)(C)C)CC2)cc1` (centres unmarked) [Compound 258, 1-(4-((4-(tert-butyl)phenyl)amino)cyclohexyl)-N,N,N-trimethylmethanaminium] gave an EC50 (HT-1080, 20 h) of 1000 to 10000 nM.

`CC(C)(C)c1ccc(NC2CCC(NS(N)(=O)=O)CC2)cc1` (centres unmarked) [Compound 259A] showed an EC50 (HT-1080, 20 h) of 100 to 1000 nM.

For `CC(C)(C)c1ccc(NC[C@H]2CC[C@H](N)CC2)cc1` [Compound 260, N-(((1r,4r)-4-aminocyclohexyl)methyl)-4-(tert-butyl)aniline], the EC50 (HT-1080, 20 h) was 0.1 to 100 nM.

For `CC1(C)CCC(c2ccc(NC3CCS(=O)(=O)CC3)cc2)CC1` [Compound 261, 4-((4-(4,4-dimethylcyclohexyl)phenyl)amino)tetrahydro-2H-thiopyran 1,1-dioxide], the EC50 (HT-1080, 20 h) was 100 to 1000 nM.

With `CCOCCCc1ccc(NC2CCC(N)CC2)cc1` (centres unmarked) [Compound 262, (1s,4s)-N1-(4-(3-ethoxypropyl)phenyl)cyclohexane-1,4-diamine] the EC50 (HT-1080, 20 h) was 100 to 1000 nM.

`CNCC1CCC(Nc2ccc(C(C)(C)C)cc2)C1` (centres unmarked) [Compound 263, 4-(tert-butyl)-N-(3-((methylamino)methyl)cyclopentyl)aniline] showed an EC50 (HT-1080, 20 h) of 100 to 1000 nM.

Molecule `NCCC1CCC(Nc2ccc3c(c2)CCC3)CC1` (centres unmarked) [Compound 264, N-(4-(2-aminoethyl)cyclohexyl)-2,3-dihydro-1H-inden-5-amine] has an EC50 (HT-1080, 20 h) of 0.1 to 100 nM.

`CC1(C)CCC(C)(C)c2cc(NC3CCC(N)CC3)ccc21` (centres unmarked) [Compound 265, N1-(5,5,8,8-tetramethyl-5,6,7,8-tetrahydronaphthalen-2-yl)cyclohexane-1,4-diamine] gave an EC50 (HT-1080, 20 h) of 0.1 to 100 nM.

Molecule `CC(C)(C)c1ccc(NC2CCC(NC(N)=O)CC2)cc1` (centres unmarked) [Compound 266A, 1-(4-((4-(tert-butyl)phenyl)amino)cyclohexyl)urea] has an EC50 (HT-1080, 20 h) of 100 to 1000 nM.

Work on `CC(C)(C)c1ccc(NC2CCC(NCCCN)CC2)cc1` (centres unmarked) [Compound 267, 1-N-(3-aminopropyl)-4-N-(4-(tert-butyl)phenyl)cyclohexane-1,4-diamine] yielded an EC50 (HT-1080, 20 h) of 1000 to 10000 nM.

For `CC(C)(C)c1ccc(NC2CCC(NCCN)CC2)cc1` (centres unmarked) [Compound 268, 1-N-(2-aminoethyl)-N4-(4-(tert-butyl)phenyl)cyclohexane-1,4-diamine], the EC50 (HT-1080, 20 h) was 0.1 to 100 nM.

In the case of `CC1CCC(Nc2ccc(C3CCCCC3)cc2)CC1` (centres unmarked) [Compound 269, 4-cyclohexyl-N-(4-methylcyclohexyl)aniline], the EC50 (HT-1080, 20 h) is reported as 100 to 1000 nM.

With `CC(C)(C)c1ccc(NC2CCC(N)(CN)CC2)cc1` (centres unmarked) [Compound 270, 1-(aminomethyl)-N4-(4-(tert-butyl)phenyl)cyclohexane-1,4-diamine] the EC50 (HT-1080, 20 h) was 100 to 1000 nM.

`CCCCCCOc1cc(NC2CCC(N)CC2)ccc1C(C)(C)C` (centres unmarked) [Compound 271, N1-(4-(tert-butyl)-3-(hexyloxy)phenyl)cyclohexane-1,4-diamine] showed an EC50 (HT-1080, 20 h) of 0.1 to 100 nM.

In the case of `CCC(C)(C)c1ccc(NC2CCC(N)C2)cc1` (centres unmarked) [Compound 272, N^1-(4-(tert-pentyl)phenyl)cyclopentane-1,3-diamine], the EC50 (HT-1080, 20 h) is reported as 0.1 to 100 nM.

Work on `CCC(C)(C)c1ccc(NC2CC(N)C2)cc1` (centres unmarked) [Compound 273, N1-(4-(tert-pentyl)phenyl)cyclobutane-1,3-diamine] yielded an EC50 (HT-1080, 20 h) of 0.1 to 100 nM.

With `CC1(C)CCC(c2ccc(NC3CCC(NC(=O)C4CNCCN4)CC3)cc2)CC1` (centres unmarked) [Compound 274, N-(4-((4-(4,4-dimethylcyclohexyl)phenyl)amino)cyclohexyl) piperazine-2-carboxamide] the EC50 (HT-1080, 20 h) was 0.1 to 100 nM.

`CC1(C)CCC(c2ccc(NC3CCC(N)(CO)CC3)cc2)CC1` (centres unmarked) [Compound 275A] gave an EC50 (HT-1080, 20 h) of 0.1 to 100 nM.

`CC(C)(C)c1ccc(NC2CC3(CC(N)C3)C2)cc1` (centres unmarked) [Compound 276, N2-(4-(tert-butyl)phenyl)spiro[3.3]heptane-2,6-diamine] showed an EC50 (HT-1080, 20 h) of 0.1 to 100 nM.

`CC(C)(C)c1ccc(NC2CC3CC(N)CC3C2)cc1` (centres unmarked) [Compound 277, N2-(4-(tert-butyl)phenyl) octahydropentalene-2,5-diamine] showed an EC50 (HT-1080, 20 h) of 0.1 to 100 nM.

With `CCCc1ccc(NC2CCC(C)(N)CC2)cc1` (centres unmarked) [Compound 278, 1-methyl-N4-(4-propylphenyl)cyclohexane-1,4-diamine] the EC50 (HT-1080, 20 h) was 0.1 to 100 nM.

`C[C@H](O)[C@@H](N)C(=O)NC1CCC(Nc2ccc(C3CCC(C)(C)CC3)cc2)CC1` (stereo partly drawn) [Compound 279, (2R, 3S)-2-amino-N-(4-((4-(4,4-dimethylcyclohexyl)phenyl)amino)cyclohexyl)-3-hydroxybutanamide] gave an EC50 (HT-1080, 20 h) of 0.1 to 100 nM.

`NC1CCC(Nc2ccc(C3CCC(C(F)(F)F)CC3)cc2)CC1` (centres unmarked) [Compound 280, N1-(4-(4-(trifluoromethyl)cyclohexyl)phenyl)cyclohexane-1,4-diamine] was tested, and the EC50 (HT-1080, 20 h) was 0.1 to 100 nM.

In the case of `CCc1c(C)cc(NC2CCC(N)CC2)cc1C` (centres unmarked) [Compound 281, N1-(4-ethyl-3,5-dimethylphenyl)cyclohexane-1,4-diamine], the EC50 (HT-1080, 20 h) is reported as 0.1 to 100 nM.

From US20240360114A1 (SIRONAX LTD., priority 2021, published 2024)
